# Measurements taken from patent US10576049B1, “Composition for improving function of aortic endothelial cell and use thereof” (XI'AN JIAOTONG UNIVERSITY, priority 2018, dated 2020).
# Legend:
# Assay type in all cases: cell-based
# [1] = test system: interleukin-6 (IL-6) mRNA in human aortic endothelial cells (HAEC); experiment: IL-6 mRNA level detection (RT-PCR) in palmitic acid-induced inflammation of human aortic endothelial cells; settings: 500 μM palmitic acid 24 h, versus control group, HAEC (FIG. 1)
# Description: (§2) In each of the three experiment groups, the cells were respectively cultured at an atmosphere of 95% air and 5% CO2 at 37° C. in wells of a 12-well cell culture plate for the following mRNA level detection, and in wells of a 6-well cell culture plate for the following protein detection. After the cell density of the three experiment groups were all cultured to 40% to 50%, the composition was added to the cells of group III. The composition was comprised of the acetic acid, lactic acid, polyoxyethylene castor oil (EL-12), and disodium alkyl polyoxyethylene sulfosuccinate (A-102) in the mass ratio of 1:2.2:1.8:1.5. Different concentrations of the composition were obtained by diluting the composition by adding a solvent having a volume of 20, 100, or 1000 times of the composition. […]
# (§3) The detecting of mRNA levels corresponding to interleukin-6 and matrix metalloproteinase-1 was carried out by using reverse transcription RNA and real-time quantitative polymerase chain reaction (PCR), and the specific method is as follows:
# (§4) The medium for cell culture in the wells was removed. […] The concentration of the solution was measured by an ultraviolet spectrophotometer. […]
# [2] = test system: matrix metalloproteinase-1 (MMP-1) mRNA in human aortic endothelial cells (HAEC); experiment: MMP-1 mRNA level detection (RT-PCR) in palmitic acid-induced inflammation of human aortic endothelial cells; settings: 500 μM palmitic acid 24 h, versus control group, HAEC (FIG. 1)
# Description: as §2, §3, §4
# [3] = test system: mitochondrial complex I in human aortic endothelial cells; experiment: Western blot of mitochondrial complex I expression in palmitic acid-treated human aortic endothelial cells; settings: 500 μM palmitic acid 24 h alone, versus control, HAEC, Western blot (FIG. 2A, 2B)
# Description: (§1) Human aortic endothelial cells (HAEC) were purchased from Shanghai Baili Biotechnology Co., Ltd. Palmitic acid was purchased from SIGMA Company. The cells were cultured in a constant-temperature, humidified, sterile incubator. The experiments were performed in three experiment groups: I. control; II. 500 μM palmitic acid treatment; and III. composition protecting. In each of the three experiment groups, the cells were respectively cultured at an atmosphere of 95% air and 5% CO2 at 37° C. in wells of a 12-well cell culture plate for the following mRNA level detection, and in wells of a 6-well cell culture plate for the following protein detection. After the cell density of the three experiment groups were all cultured to 40% to 50%, the composition was added to the cells of group III. […] The supernatants were collected, and the proteins therein were quantified by bicinchoninic acid (BCA) assay, and normalized. […] Target proteins were detected by chemiluminescence. Referring to FIG. 1 to FIG. 3, the data obtained in the above-described experiments, for the amount of the mRNA and the proteins, were expressed in the diagrams in form of mean±SEM (SEM is standard error of mean), and the data were analyzed by using One-way ANOVA analysis method with statistical significance p values of * meaning p<0.05, ** meaning p<0.01, *** meaning p<0.001. […]
# [4] = test system: mitochondrial complex III in human aortic endothelial cells; experiment: Western blot of mitochondrial complex III expression in palmitic acid-treated human aortic endothelial cells; settings: 500 μM palmitic acid 24 h alone, versus control, HAEC, Western blot (FIG. 2A, 2B)
# Description: as §1
# [5] = test system: FoxO1 protein in human aortic endothelial cells; experiment: Western blot of FoxO1 protein expression in palmitic acid-treated human aortic endothelial cells; settings: 500 μM palmitic acid 24 h alone, versus control, HAEC
# Description: as §1
smiles,measurement,setting,value
CCCCCCCCCCCCCCCC(=O)O [palmitic acid],increase of mRNA level corresponding to IL-6,[1],about 12 times
same,increase of mRNA level corresponding to MMP-1,[2],about 5 times
same,expression of mitochondrial complex I,[3],reducing
same,expression of mitochondrial complex III,[4],reducing
same,expression of FoxO1,[5],reducing
